Measurements taken from patent US20250374924A1, “ACTIVE MOLECULES IN THE SECRETOME OF PSEUDOMONAS PROTEGENS PBL3” (Board of Regents of the University of Nebraska, priority 2024, published 2025).
“Also recorded” adds a separate entry of the source.

Columns and labels:
[1] = test system: Burkholderia glumae; assay: Antimicrobial assay in vitro: growth of B. glumae in KB broth (OD600 after 18 hours); conditions: for minimum inhibitory concentration needed for reduction of B. glumae growth in vitro: concentrations tested 1000, 100, 10 μg/mL; for growth of B. glumae (in words): concentrations ranging from 10 μg/mL to 1000 μg/mL
Method: A single colony of P. protegens PBL3 was grown in 1×M9 minimal media (Sigma Aldrich, St. Louis, MO) supplemented with filter-sterilized 56 mM Myo-inositol, 2 mM MgSO4·7H2O, and 0.2 mM CaCl2). The culture was incubated at 25° C. with constant agitation (210 rpm) for 60 hours until reaching an optical density at 600 nm (OD600) of 0.5. Bacterial culture was centrifuged at 10,000 rpm for 10 minutes. The bacterial pellet was discarded and the supernatant, containing the secreted fraction (secretome) was transferred to a new tube and filter-sterilized using a 0.22 μm filter (Fisher Scientific, Ireland) to eliminate any residual bacterial suspension.
Orfamide A, orfamide B, pyrrolnitrin, and pyoluteorin (Cayman Chemical Company, Ann Arbor, MI), and pyochelin (Santa Cruz Biotechnology, Dallas, TX), were diluted in 5% dimethyl sulfoxide (DMSO) at 1000 μg/mL and further diluted to 100 μg/mL and 10 μg/mL. Similarly, pyoverdine (Sigma-Aldrich, Saint Louis, MO) was diluted in water, whereas 2,4-DAPG (ThermoFisher Scientific, Poland) and fengycin (Sigma-Aldrich, Saint Louis, MO) were diluted in 5% ethanol at 1000 μg/mL and further diluted to 100 μg/mL and 10 μg/mL.
Burkholderia glumae grown on KB was scraped from the agar and resuspended in sterile water to a final OD600 of 0.2. One hundred microliters of B. glumae was added to 200 μL of KB broth to make a master mix. The master mix was supplemented with either water, 5% DMSO, or 5% ethanol, used as control. Alternatively, master mix was supplemented with either P. protegens PBL3 secretome or different compounds (orfamide A, orfamide B, fengycin, pyrrolnitrin, pyochelin, pyoverdine, 2,4-DAPG, or pyoluteorin), each at three concentrations of 1000 μg/mL, 100 μg/mL, and 10 μg/mL, or combination of compounds. Two compound combinations were chosen, the first combination consisted of 2,4-DAPG and pyoluteorin at final concentrations of 100 μg/mL and 10 μg/mL, respectively. The second combination consisted of 2,4-DAPG and pyoluteorin, each at concentration of 10 μg/mL. […] The growth of B. glumae was evaluated by measuring the OD600 using a spectrophotometer (Genesys 140, Thermoscientific, Madison, WI, USA). Each experiment was replicated three times.

[2] = test system: rifampicin-resistant strain of B. glumae; assay: Antimicrobial assay in planta: rice panicles pre-treated with compound, then spray-inoculated with B. glumae (BPB symptoms, bacterial populations); assay type: in vivo, Burkholderia glumae; conditions: 3 dpi; for reduction of B. glumae populations in rice panicles: pre-treated with 500 μg/mL, vs water pre-treated inoculated panicles, FIG. 4B; for BPB symptoms in rice panicles (in words): rice Kitaake panicles pre-treated with 500 μg/mL, water pre-treated, inoculated panicles exhibited the highest levels of BPB symptoms, FIG. 4A
[3] = at the three concentrations 10 μg/mL, 100 μg/mL, 1000 μg/mL
[4] = compound at 1000 μg/mL, 18 hours, FIG. 2
[5] = at a concentration of 1000 μg/mL
[6] = other concentrations than 1000 μg/mL (100 μg/mL, 10 μg/mL), FIG. 2
[7] = compound at 100 μg/mL, 18 hours, FIG. 2

Compound: CC(=O)c1c(O)cc(O)c(C(C)=O)c1O [2,4-DAPG, 2,4-diacetylphloroglucinol]
- reduction in B. glumae growth ([1]; 2,4-DAPG at 100 μg/mL alone or with pyoluteorin at 10 μg/mL, 18 hours, FIG. 7): 45%
- effect on growth of B. glumae (in words) [1, 3]: inhibits B. glumae; also recorded: significantly reduced the growth of B. glumae
- reduction of growth of B. glumae [1, 4]: 93%
- minimum inhibitory concentration needed for reduction of B. glumae growth in vitro [1]: 100 µg/mL
- reduction of B. glumae populations in rice panicles [2]: 1.17 logs
- BPB symptoms in rice panicles (in words) [2]: showed reduction of symptoms

Compound: CN1[C@@H]([C@H]2CSC(c3ccccc3O)=N2)SC[C@H]1C(=O)O [pyochelin]
- effect on growth of B. glumae (in words) [1, 5]: inhibits B. glumae
- reduction of growth of B. glumae [1, 4]: 40%
- minimum inhibitory concentration needed for reduction of B. glumae growth in vitro [1]: 1000 µg/mL
- effect on growth of B. glumae (in words) [1, 6]: did not have any effect
- reduction of B. glumae populations in rice panicles [2]: No changes in B. glumae populations
- BPB symptoms in rice panicles (in words) [2]: showed reduction of symptoms

Compound: O=C(c1cc(Cl)c(Cl)[nH]1)c1c(O)cccc1O [pyoluteorin]
- effect on growth of B. glumae (in words) [1, 3]: inhibits B. glumae; also recorded: significantly reduced the growth of B. glumae
- reduction of growth of B. glumae [1, 7]: 97%
- reduction of growth of B. glumae [1, 4]: 97%
- minimum inhibitory concentration needed for reduction of B. glumae growth in vitro [1]: 100 µg/mL
- reduction of B. glumae populations in rice panicles [2]: 1.5 logs
- BPB symptoms in rice panicles (in words) [2]: showed reduction of symptoms

Compound: O=[N+]([O-])c1c(Cl)cccc1-c1c[nH]cc1Cl [pyrrolnitrin]
- effect on growth of B. glumae (in words) [1, 5]: inhibits B. glumae
- reduction of growth of B. glumae [1, 4]: 25%
- minimum inhibitory concentration needed for reduction of B. glumae growth in vitro [1]: 1000 µg/mL
- effect on growth of B. glumae (in words) [1, 6]: did not have any effect

Compound: Orfamide A
- growth of B. glumae (in words) ([1]; FIG. 2): did not reduce the growth of B. glumae

Compound: fengycin
- growth of B. glumae (in words) ([1]; FIG. 2): did not reduce the growth of B. glumae

Compound: orfamide B
- growth of B. glumae (in words) ([1]; FIG. 2): did not reduce the growth of B. glumae

Compound: pyoverdine
- effect on growth of B. glumae (in words) [1, 3]: inhibits B. glumae
- reduction of growth of B. glumae [1, 7]: ~80%
- reduction of growth of B. glumae [1, 4]: ~80%
- minimum inhibitory concentration needed for reduction of B. glumae growth in vitro [1]: 100 µg/mL
- reduction of B. glumae populations in rice panicles [2]: No changes in B. glumae populations
